We go through 90 molecules from a melting point compilation (Tetko et al.; mined from patent text by program, amines drawn as free bases though some values may be those of a salt).

The term melting point denotes the temperature of the solid-liquid transition. `COC(=O)c1ccc(/C=C/c2cc3c(cc2CCCO)C(C)(C)CCC3(C)C)cc1` came in with a melting point of 109 to 116 °C.

For `Cc1cc(O)c(O)cc1S(=O)(=O)c1ccc(F)cc1`, the melting point was 175 to 177 °C.

Turning to `CCCCCCCCCCCCCCCCC(C(=O)NC1=NN(c2ccccc2)C(=O)C1C)S(=O)(=O)O` (stereo not given), the melting point was 240 °C.

For `CC(C)(C)c1cc(C(=O)Nc2ccc([N+](=O)[O-])cc2)cc(C(C)(C)C)c1O`, the melting point is 277 to 278 °C.

`CCOCCOc1cccc2oc(-c3cccs3)cc(=O)c12`: the melting point was in the range of 111 to 113 °C.

`CC(C)n1nc(-c2c(-c3ccccc3)nc(N)nc2N(C)C)ccc1=O`: the melting point lay within 293 to 296 °C.

Molecule `CCc1cccc(C)c1S(=O)(=O)c1nn(C(=O)N(CC)CC)cc1Cl` yielded a melting point of 68 to 72 °C.

`N#CCc1ncccc1[N+](=O)[O-]` registered a melting point of 106 to 108 °C.

In the case of `CC1(C)CC(S(=O)(=O)C(F)c2c(F)cccc2F)=NO1` (stereo not given), the melting point amounted to 88 °C.

Regarding `COC(C)=CC(=O)Nc1cccc(OC(C)=O)c1`, the melting point was found to be 111 °C.

`C=C1c2ccccc2CC12CCC(N1CCCCC1)CC2` (stereo not given) displayed a melting point of 93 to 95 °C.

As to `CCCc1nc2sc3c(NCc4cccnc4)ncnc3c2c2c1COC(C)(C)C2`, the melting point lay in the range of 259 to 260 °C.

`CC(=O)c1ccc(C=CC(=O)NCCO)cc1` yielded a melting point of 124 to 125 °C.

`CC(C)(C)OC(=O)NCc1cccc(C#N)n1` displayed a melting point of 85.9 to 86.5 °C.

The molecule `CCOC(=O)C1=C(C)NN=C(CC)C1c1cccc(C#N)c1` (stereo not given) displayed a melting point of 91 °C.

On to `O=S(CCCCCOc1ccc(C2=C(c3ccccc3)CCCc3cc(O)ccc32)cc1)Cc1cccs1` (stereo not given), for which the melting point lay in the range of 174 to 177 °C.

The molecule `CCCCCCCCCCc1ccc(CCC(N)(CO)CCO)cc1` (stereo not given) yielded a melting point of 69 to 72 °C.

Molecule `Cc1ccc(SC(Cl)=C(C(Cl)=C(Cl)Cl)[N+](=O)[O-])cc1` came in with a melting point of 110 to 111 °C.

Consider `COC(=O)c1ccc(I)cc1N`, for which the melting point lay in the range of 63 to 67 °C.

`O=S1(=O)CCN2CCN[C@H](c3ccc(Oc4ccccc4)cc3)C2=N1`: the melting point is 124 to 125 °C.

Turning to `CCCc1nn(CC)c2c(=O)n(CCCOc3ccc(SC(C)(C)C(=O)O)cc3)c(C)nc12`, the melting point lay within 118 to 120 °C.

`CONC(=N)c1ccc(-c2cc3ncn([C@H](C)[C@](O)(Cn4cncn4)c4ccc(F)cc4F)c(=O)c3s2)cc1` registered a melting point of 125 to 128 °C.

As for `CCOC(=O)Nc1ccc(C2CCN(C(=O)OCC)CC2)cc1`, the melting point lay in the range of 105 to 107 °C.

`CNCC(O)COc1ccc(C#N)cc1` (stereo not given) registered a melting point of 100 to 102 °C.

`C#Cc1cc(C(=O)OC)ccc1S(C)(=O)=O`: the melting point fell in the range of 95 to 98 °C.

Regarding `CCCCNC(=S)Nc1nc2ccc(OC(F)(F)F)cc2s1`, the melting point came out at 211 °C.

`NC1=NC(c2ccc(OC(F)(F)F)cc2)(c2cccc(-c3cncc(F)c3)c2)C2=NCCON12` (stereo not given) gave a melting point of 120 to 135 °C.

Molecule `Cc1ccc(S(=O)(=O)NC(Cc2ccccc2)C(=O)Nc2c(F)cc(F)cc2F)cc1` (stereo not given) had a melting point of 180 to 181 °C.

Turning to `Cc1cccc(-c2nc3cccnn3c2-c2ccnc(N)c2)c1`, the melting point was 188 to 189 °C.

Molecule `CC1CN(c2ccc(N)cc2Cl)C(=O)O1` (stereo not given) came in with a melting point of 140 to 141 °C.

As for `Cc1ccc(C)c(OCCCC(C)(C)C(=O)Nc2cccc(N)c2)c1`, the melting point lay in the range of 93 to 94 °C.

As for `COc1ccc(NC(=O)c2ccccc2O)cc1`, the melting point lay in the range of 162 to 163 °C.

Consider `O=C(Nc1ccc(N2CCOCC2=O)cc1)[C@H]1C=CCN1C(=O)Nc1ccc(Cl)cc1`, for which the melting point came to 245 °C.

As for `COC(=O)N(CC(=O)OC(C)(C)C)S(=O)(=O)c1ccc(N2CCC(NC[C@H](O)c3ccc(O)c(NS(C)(=O)=O)c3)CC2)cc1`, the melting point was in the range of 110 to 115 °C.

Molecule `Nc1cccc(S(=O)(=O)Nc2nncs2)c1` returned a melting point of 155 to 158 °C.

As to `CC(C(=O)O)c1ccc2cc(OCCCCCCc3cccc(O)c3O)ccc2c1` (stereo not given), the melting point is 136 to 139 °C.

With `CC(C)C1NC(=O)CN1C(=O)CNC(=O)CN1CCCC1=O` (stereo not given), the melting point lay within 104 to 106 °C.

For `OCC1OC(n2cnc3cncnc32)CC1F` (stereo not given), the melting point came out at 89 °C.

`CCC(CC)Oc1cc(C)nc2c1nc(N)n2-c1c(C)cc(C)cc1C` had a melting point of 159 to 161 °C.

In the case of `CCc1nc2c(C)cc(C)nc2n1Cc1ccc(-c2ccccc2-c2c(N)c(=O)c2=O)cc1`, the melting point was found to be 217 °C.

With `CCCCCCCCNC1=CC(=O)c2c(OC)ccc(OC)c2C1=O`, the melting point fell in the range of 81 to 82 °C.

Take `CCCC1(CC(=O)O)OCCc2c1[nH]c1c(C)ccc(C(=O)NC)c21` (stereo not given): the melting point lay within 89 to 91 °C.

In turn, `N#Cc1ncn2c1[C@@H]1CCN1C(=O)c1ccccc1-2` registered a melting point of 232 to 234 °C.

Regarding `BrCCON=C1c2ccccc2-n2cccc21`, the melting point is 65 °C.

In turn, `O=C(OCC1CCCC1)c1ncn2c1[C@@H]1CCCN1C(=O)c1c(Cl)cccc1-2` had a melting point of 112 to 114 °C.

On to `COc1ccc(-c2[nH]nc3c2C(=O)c2c(NC(=O)C4CCCC4)cccc2-3)cc1`, for which the melting point was determined as 267 °C.

Regarding `COc1ccc(C2(c3ccc(OC)cc3)CC2(Cl)Cl)cc1`, the melting point was determined as 138 °C.

`COc1ccc(-c2nc(Sc3ccccc3)[nH]c2-c2ccc(OC)cc2)cc1` had a melting point of 177 to 179 °C.

Turning to `COCCNC(N)=Nc1nc(-c2cccc(CNC(C)=O)c2)cs1`, the melting point is 123 to 124 °C.

On to `Cc1nc(SCc2ccncc2C(=O)O)sc1CC(=O)O`, for which the melting point fell in the range of 178 to 180 °C.

In turn, `O=C(Nc1ccc(C(F)(F)F)cc1)Nc1ccc(S(=O)(=O)NCCN2CCOCC2)cc1` registered a melting point of 62 to 65 °C.

The molecule `Cc1nc2cc(S(=O)(=O)n3c(CCCC(=O)O)cc4cc(C(F)(F)F)ccc43)ccc2s1` had a melting point of 171 to 178 °C.

With `c1cc(CN2CCCCC2)cc(OCCCCCNc2nc3ccccc3s2)c1`, the melting point lay within 140 to 145 °C.

In turn, `O=C1Nc2c(Br)cc(Br)c3cccc1c23` yielded a melting point of 259 to 260 °C.

`Cc1ccccc1-c1ccc(C(=O)N2Cc3ccc(C(=O)NCc4cccnc4)n3Cc3ccccc32)cc1` returned a melting point of 176 to 177 °C.

`Cc1cc(Oc2ncc(C(F)(F)F)cc2Cl)nn1C(=O)N(C(C)C)C(C)C` yielded a melting point of 58 to 60 °C.

For the molecule `C#CCn1c(=O)nc(-c2ccc3c(c2)OCO3)c2cc3c(cc21)OCO3`, the melting point was in the range of 235 to 240 °C.

`CCCCCCCCOc1cccc2c1OCO2` gave a melting point of 120 °C.

`O=C(O)CCCn1c(=O)n2n(c1=O)C(C(=O)O)C=CC2` (stereo not given) had a melting point of 130 °C.

In turn, `COc1cccc2cc(C)c(C)nc12` registered a melting point of 138 to 139 °C.

Take `CCCCC(CC)C(=O)Nc1ccc2c(/C=C/C(=O)O)cn(Cc3ccc(C(=O)NS(=O)(=O)c4ccccc4)cc3OC)c2c1` (stereo not given): the melting point lay in the range of 200 to 201 °C.

For the molecule `COc1cc(OC)cc(C(=O)N2CCc3cc(OCc4ccccc4)ccc3C2=O)c1`, the melting point lay within 158 to 159 °C.

Consider `CO/C=C(/C(=O)OC)c1ccccc1Oc1cc(Cl)ncn1`, for which the melting point lay within 94 to 95 °C.

The molecule `CCCCc1c(C(=O)OCC)cc(Oc2nnnn2-c2ccccc2)c2ccc(OC)cc12` registered a melting point of 94 to 96 °C.

With `CCCCCCCCCC(O)CNCCCNCC(O)CCCCCCCCC` (stereo not given), the melting point fell in the range of 94 to 103 °C.

With `O=C(O)[C@H]1C[C@H](F)CN1`, the melting point lay within 258 to 260 °C.

As for `O=C(O)CCCc1cc2cc(Cl)ccc2n1S(=O)(=O)c1ccc2c(c1)CNCC2`, the melting point is > 250 °C.

The molecule `Fc1ccc2c(c1)[C@H]1N[C@@H](CNC(c3ccccc3)(c3ccccc3)c3ccccc3)C[C@@H]1c1ccccc1C2` had a melting point of 58 to 60 °C.

`COc1ccc(C2CC(=O)N(c3ccnc(NC(=O)NCc4ccccn4)c3)C2)cc1` (stereo not given): the melting point lay in the range of 159 to 161 °C.

`CN1CCNCCNCCCNCCNCC1` registered a melting point of 85 to 87 °C.

Turning to `O=C(O)c1ccc(-c2ccc(I)c(O)c2)cc1`, the melting point came out at 174 °C.

In the case of `CCc1cnc(C2=NC(C)(C(C)C)C(=O)N2)c(C(=O)NCCCC(=O)O)c1` (stereo not given), the melting point lay in the range of 165 to 167 °C.

Consider `C#CCC1(c2ccc(Cl)cc2)Cc2cc(OCC(=O)O)c(Cl)c(Cl)c2C1=O` (stereo not given), for which the melting point is 200 to 201 °C.

In the case of `CCOc1ccc2c(c1)n(C1CCCCC1)c(=O)n2S(=O)(=O)c1ccc(NC(=O)Oc2ccccc2)cc1OC`, the melting point stood at 197 °C.

Molecule `CC(=O)Nc1cccc2c1CCCC2` displayed a melting point of 158 °C.

In turn, `N#CCCNC(=O)c1ccnc(-c2cccc3oc(Cc4cccc(C(F)(F)F)c4)cc23)c1` returned a melting point of 114 to 115 °C.

As to `CCCNC(=O)C(C)c1nc(CC)no1` (stereo not given), the melting point is 52 to 53 °C.

As to `O=C(O)[C@@H]1Cc2ccccc2N1c1ccc(Cl)nn1`, the melting point lay within 211 to 212 °C.

In turn, `COC(=O)c1cc(C(=O)c2c(C)c(OC)c3ccc(O)cn23)ccc1N` displayed a melting point of 216 °C.

On to `Clc1ncc(Br)c(NC2CCCC2)n1`, for which the melting point was in the range of 95 to 96 °C.

For the molecule `CCCCN1CCn2c1nc(C(=O)NCc1ccc(F)cc1C(=O)NC)c(O)c2=O`, the melting point lay within 175 to 177 °C.

As to `COc1ccc(F)cc1C(=O)NC1Cc2cc(S(=O)(=O)NC(=S)NC(C)C)c(OC)cc2OC1(C)C` (stereo not given), the melting point is 156 to 157 °C.

In turn, `Cc1cnc(N2CCN(C(=O)OC(C)(C)C)CC2)c2ccoc12` registered a melting point of 108 °C.

The molecule `Cn1nc(C(F)(F)F)cc1Oc1ccnc(-c2ccc(F)cc2)n1` registered a melting point of 101 to 102 °C.

Take `N#Cc1c(Cl)sc2[nH]c(=O)c(=O)[nH]c12`: the melting point was > 250 °C.

`CCOC(=O)/C(CC(=O)O)=C(\c1ccc(Cl)cc1)c1ccc(S(C)(=O)=O)cc1`: the melting point was 40 to 42 °C.

Take `CN1CCc2c(c3ccccc3n2CCC(=O)NN)C1`: the melting point is 123 to 124 °C.

`CC(C)c1cc(C(=O)CO[C@@H]2C[C@H](C)CC[C@H]2C(C)C)cc(C(C)C)c1O` had a melting point of 83 to 84 °C.

Molecule `CCOC(=O)c1ccc(-c2ccc(N(c3ccc(-c4ccccc4)cc3)c3ccc(-c4ccc(C(=O)OCC)cc4)cc3)cc2)cc1` yielded a melting point of 200 to 201 °C.

As to `COC(=O)CCC(=O)Nc1cccc(Oc2nc3ccccc3s2)c1`, the melting point fell in the range of 78 to 82 °C.
